Experimental data published in US20250332173A1, “COMPOUNDS AND METHODS FOR MODULATING NUCLEIC ACID SPLICING” (REMIX THERAPEUTICS INC., priority 2021, published 2025).
Read-outs that look alike come from different tables or passages of the source.

Columns and labels:
[1] = test system: K562 (human chronic myelogenous leukemia) cells; assay: Cell Titer Glo 2.0 cell viability assay; format: cell-based; conditions: Homo sapiens, K562, 72 h, K562 cells, 72 hours, Cell Titer Glo 2.0; read-out: K562 GI50
[2] = test system: Target C; assay: RT-qPCR splicing assay panel, Target C canonical junction (CJ) mRNA; format: cell-based, human; conditions: Homo sapiens
Experimental: (§1) The expression of a target mRNA was measured by detecting the formation of an exon-exon junction in the canonical transcript (CJ). A compound mediated exon-inclusion event was detected by observing an increase in formation of a new junction with an alternative exon (AJ). Real-time qPCR assays were used to detect these splicing switches and interrogate the potency of various compounds towards different target genes. A high-throughput real time quantitative PCR (RT-qPCR) assay was developed to measure these two isoforms of the mRNA (CJ and AJ) for exemplary genes, such as HTT, SMN2, and MYB, together with a control housekeeping gene, GAPDH or GUSB or PPIA, used for normalization. Briefly, the A673 or K562 cell line was treated with various compounds described herein (e.g., compounds of Formula (I)). After treatment, the levels of the HTT, MYB, or SMN2 mRNA targets were determined from each sample of cell lysate by cDNA synthesis followed by qPCR.
(§2) The A673 cell line was cultured in DMEM with 10% FBS. Cells were diluted with full growth media and plated in a 96-well plate (15,000 cells in 100 ul media per well). The plate was incubated at 37° C. with 5% CO2 for 24 hours to allow cells to adhere. An 11-point 3-fold serial dilution of the compounds was made in DMSO then diluted in media in an intermediate plate. Compounds were transferred from the intermediate plate to the cell plate with the top dose at a final concentration of 10 uM in the well. Final DMSO concentration was kept at or below 0.25%. The cell plate was returned to the incubator at 37° C. with 5% CO2 for an additional 24 hours.
(§3) The K562 cell line was cultured in IMDM with 10% FBS. For K562, cells were diluted with full growth media and plated in either a 96-well plate (50,000 cells in 50 uL media per well) or a 384-well plate (8,000-40,000 cells in 45 uL media per well). An 11-point 3-fold serial dilution of the compounds were made in DMSO then diluted in media in an intermediate plate. Compound was transferred from the intermediate plate to the cell plate with the top dose at a final concentration of 10 uM in the well. Final DMSO concentration was kept at or below 0.25%. Final volume was 100 uL for 96-well plate and 50 uL for 384-well plate. The cell plate was then placed in an incubator at 37° C. with 5% CO2 for 24 hours.
(§4) The cells were then gently washed with 50 uL-100 uL cold PBS before proceeding to addition of lysis buffer. 30 uL-50 uL of room temperature lysis buffer with DNAse I (and optionally RNAsin) was added to each well. Cells were shaken/mixed thoroughly at room temperature for 5-10 minutes for lysis to take place and then 3 uL-5 uL of room temperature stop solution was added and wells were shaken/mixed again. After 2-5 minutes, the cell lysate plate was transferred to ice for RT-qPCR reaction setup. The lysates could also be frozen at −80° C. for later use.
(§5) In some cases, a direct lysis buffer was used. An appropriate volume of 3× lysis buffer (10 mM Tris, 150 mM NaCl, 1.5%-2.5% Igepal and 0.1-1 U/uL RNAsin, pH 7.4) was directly added to either K562 or A673 cells in media and mixed by pipetting 3 times. The plates were then incubated at room temperature with shaking/rocking for 20-50 minutes to allow for lysis to take place. After this time, the cell lysate plate was transferred to ice to set up for the RT-qPCR reactions. The lysates could also be frozen at −80° C. for later use.
(§6) To set up 10 uL RT-qPCR reactions, cell lysates were transferred to 384-well qPCR plates containing the master mix according to the table below. The plates were sealed, gently vortexed, and spun down before the run. The volumes were adjusted accordingly in some instances where the reaction was carried in 20 uL. The table below summarizes the components of the RT-qPCR reactions:
(§7) The RT-qPCR reaction was performed using a QuantStudio (ThermoFisher) under the following fast cycling conditions.

[3] = test system: HTT mRNA; assay: RT-qPCR splicing assay, HTT canonical junction (CJ) and alternative junction (AJ) mRNA; format: cell-based, human; conditions: Homo sapiens; for AC50: increase in HTT alternative junction (AJ) mRNA, read-out: HTT AJ AC50
Experimental: as §1
(§8) • Cells-to-CT 1-step kit: ThermoFisher A25602, Cells-to-CT lysis reagent: ThermoFisher 4391851C, TaqMan™ Fast Virus 1-Step Master Mix: ThermoFisher 4444436 • GAPDH: VIC-PL, ThermoFisher 4326317E (Assay: Hs99999905_m1)—used for K562/suspension cell lines • GUSB: VIC-PL, ThermoFisher 4326320E (Assay: Hs99999908_m1)—used for K562/suspension cell lines • PPIA: VIC-PL, ThermoFisher 4326316E (Assay: Hs99999904_m1)—used for A673/adherent cell lines
as §2, §3, §4, §5

[4] = test system: MYB mRNA; assay: RT-qPCR splicing assay, MYB canonical junction (CJ) and alternative junction (AJ) mRNA; format: cell-based, human; conditions: Homo sapiens; for AC50: increase in MYB alternative junction (AJ) mRNA, read-out: MYB AJ AC50
Experimental: as §1, §8, §2, §3, §4, §5

[5] = test system: SMN2 mRNA; assay: RT-qPCR splicing assay, SMN2 canonical junction (CJ) mRNA; format: cell-based, human; conditions: Homo sapiens; Table 5 panel; canonical junction qPCR; compound concentration having 50% response in CJ decrease; read-out: SMN2 IC50 (decrease in CJ mRNA levels)
Experimental: as §1, §2, §3, §4, §5, §6, §7

[6] = canonical junction qPCR panel, Table 5, read-out: Target C (decrease in CJ mRNA levels, IC50)
[7] = decrease in HTT canonical junction (CJ) mRNA, RT-qPCR, read-out: HTT CJ IC50
[8] = canonical junction qPCR panel, Table 5, read-out: HTT (decrease in CJ mRNA levels, IC50)
[9] = canonical junction qPCR panel, Table 5, read-out: MYB (decrease in CJ mRNA levels, IC50)
[10] = decrease in MYB canonical junction (CJ) mRNA, RT-qPCR, read-out: MYB CJ IC50
[11] = Table 5 panel, canonical junction qPCR, compound concentration having 50% response in CJ decrease, read-out: HTT IC50 (decrease in CJ mRNA levels)
[12] = Table 5 panel, canonical junction qPCR, compound concentration having 50% response in CJ decrease, read-out: Target C IC50 (decrease in CJ mRNA levels)

Compound | GI50 [1] | IC50 [2, 6] | IC50 [3, 7] | IC50 [3, 8] | IC50 [4, 9] | IC50 [4, 10] | IC50 [5] | IC50 [3, 11] | IC50 [2, 12] | AC50 ([3]; RT-qPCR) | AC50 ([4]; RT-qPCR)
Cc1cc(-c2ccc3nc(N4CCN(C)CC4)[nH]c(=O)c3c2)cc2cn(C)nc12 [Compound 165] | – | – | > 10 µM | – | – | – | 0.1 to 1 µM | > 10 µM | – | > 10 µM | –
Cc1cn2nc(-c3ccc4c(=O)n([C@H]5CCN[C@H](C)C5)ncc4c3)cc(C)c2n1 [Compound 273] | – | – | 0.1 to 1 µM | – | – | – | – | < 0.1 µM | 0.1 to 1 µM | < 0.1 µM | –
CC[C@@H]1C[C@@H](n2ncc3cc(-c4cc(C)c5nc(C)cn5n4)ccc3c2=O)CCN1 [Compound 305] | – | – | 1 to 10 µM | – | – | – | – | 0.1 to 1 µM | 0.1 to 1 µM | 0.1 to 1 µM | –
Cc1cn2cc(-c3ccc4c(=O)n([C@@H]5CCNC6(CC6)C5)ccc4n3)cc(F)c2n1 [Compound 1510] | 0.1 to 1 µM | 1 to 10 µM | 1 to 10 µM | 0.1 to 1 µM | 0.1 to 1 µM | 1 to 10 µM | – | – | – | 0.1 to 1 µM | 0.1 to 1 µM
Cc1cn2nc(-c3cc(C)c4c(=O)n(C5CCNC6(CC6)C5)ncc4n3)cc(C)c2n1 (stereo not shown) [Compound 1552, 6-(4-azaspiro[2.5]octan-7-yl)-2-(2,8-dimethylimidazo[1,2-b]pyridazin-6-yl)-4-methyl-pyrido[2,3-d]pyridazin-5-one] | 0.1 to 1 µM | 0.1 to 1 µM | 0.1 to 1 µM | 0.1 to 1 µM | 0.1 to 1 µM | 0.1 to 1 µM | – | – | – | 0.1 to 1 µM | 0.1 to 1 µM

Continued, in another order:

GI50 [1] | IC50 [2, 6] | IC50 [3, 7] | IC50 [3, 8] | IC50 [4, 9] | IC50 [4, 10] | IC50 [5] | IC50 [3, 11] | IC50 [2, 12] | Compound | AC50 ([3]; RT-qPCR) | AC50 ([4]; RT-qPCR)
0.1 to 1 µM | 1 to 10 µM | 1 to 10 µM | 0.1 to 1 µM | 0.1 to 1 µM | 0.1 to 1 µM | – | – | – | Cc1c(O)c(-c2ncc3c(=O)n([C@@H]4CCNC5(CC5)C4)ccc3n2)cc2cn(C)nc12 [Compound 1513] | 0.1 to 1 µM | 0.1 to 1 µM
< 0.1 µM | < 0.1 µM | < 0.1 µM | < 0.1 µM | < 0.1 µM | < 0.1 µM | – | – | – | Cc1c(O)c(-c2ccc3c(=O)n([C@H]4CCNC5(CC5)C4)ccc3n2)cc2cn(C)nc12 [Compound 1508, 6-[(7S)-4-azaspiro[2.5]octan-7-yl]-2-(6-hydroxy-2,7-dimethyl-indazol-5-yl)-1,6-naphthyridin-5-one] | < 0.1 µM | < 0.1 µM
0.1 to 1 µM | 0.1 to 1 µM | < 0.1 µM | < 0.1 µM | 0.1 to 1 µM | < 0.1 µM | – | – | – | Cc1cn2nc(-c3ccc4c(=O)n([C@H]5CCNC6(CC6)C5)ccc4n3)cc(C)c2n1 [Compound 1506, 6-[(7S)-4-azaspiro[2.5]octan-7-yl]-2-(2,8-dimethylimidazo[1,2-b]pyridazin-6-yl)-1,6-naphthyridin-5-one] | < 0.1 µM | 0.1 to 1 µM
